The values below come from publication PMC10097024, “Cytotoxic and Antibacterial Prenylated Acylphloroglucinols from Hypericum olympicum L” (Plants, 2023).

≈ marks a conversion by molar mass, not a printed value. Where “and” joins values, the source holds several entries; their conditions need not be identical. Equal values may be shown once. Read-outs that look alike come from different tables or passages of the source.

For test [1], the system named is NorA multidrug efflux pumps. Further details: method as in PMID 24119569. Conditions: S. aureus; cited from earlier work.
Test [2] deals with HL-60. Put plainly: Antiproliferative test (NCI methodology). The class given is cell-based, human. From the text:
(§1) The group of human cell lines used in this study were represented by the tumor cell lines MDA-MB (breast carcinoma), EJ (urinary bladder carcinoma), K-562 (chronic myeloid leukemia), HL-60 (acute pre-myeloid leukemia), HL-60/DOX (multi-drug resistant HL-60 cell line, with over expression of MRP-1) and the non-tumorigenic cell lines HEK-293 (embryonic kidney cells) and EA.hy926 (vascular endothelial cells). EJ, HL60 and EA.hy926 were purchased from American Type Culture Collection (ATCC) (Manassas, Virginia). The other cell lines were purchased from the German Collection of Microorganisms and Cell Cultures (DSMZ GmbH, Braunschweig, Germany). HL-60/DOX cell lines were generated by periodically treating HL-60 cells with anthracyclins. The conditions in which the cell culture flasks were maintained were as follows: 37 °C in an incubator “BB 16-Function Line” Heraeus (Kendro, Hanau, Germany) with 5% CO2 humidified atmosphere. The growth medium was 90% RPMI-1640, supplemented with 10% FBS and 2 mM L-glutamine. MDA-MB-231, EJ, HEK-293 and EA.hy926 cells were maintained as adherent monolayer cultures while all the other (leukemic) cell lines were grown as suspension type cultures. Cells were maintained in log phase: the adherent cell lines were subjected to trypsinization 1–2 times a week and the leukemic cell lines were passaged 2–3 times a week by removing of part of the cellular suspension and substituting it with fresh medium.
(§2) The test was performed according the methodology of National Cancer Institute (NCI), USA [116]. Briefly, cells were seeded into 96-well plates in the same way as for an MTT test and after 24 h, the absorption of one plate of each cell line was measured as in the MTT assay described above, to represent a measurement of the cell population at the time of drug-addition (Tz). The rest of the plates were treated with the tested compounds and the experiment for them continued as the MTT-method. Using the absorbance measurements [(Tz, untreated control growth (C) and test growth in the present of the compounds (Ti)], the percentage growth is calculated at each of the tested concentrations of the compounds. Percentage growth inhibition (GI) is calculated as GI%=Ti−Tz/C−Tz×100 for concentrations for which Ti ≥ Tz. For concentrations in which Ti < Tz it is calculated as GI%=Ti−Tz/Tz×100 . Two dose parameters are calculated for each experimental agent. Growth inhibition of 50% (GI50) is calculated from Ti−Tz/C−Tz×100=50 . This is the drug concentration resulting in a 50% reduction in the net protein increase (as measured by MTT-test) in control cells during the drug incubation. The drug concentration resulting in total growth inhibition (TGI) is calculated from Ti = Tz.

Test [3] concerns MDA-MB-231. Put plainly: Antiproliferative test (NCI methodology). In kind it is cell-based, human.
Description: as §1, §2

Test [4] has as its system K-562. Put plainly: Antiproliferative test (NCI methodology). In kind it is cell-based, human.
Description: as §1, §2

The test system of test [5] is human tumor (MDA-MB-231, EJ, K-562, HL-60 and HL-60/DOX) cell lines. In words: MTT cytotoxicity test, tumor cell line panel. The settings on record: Homo sapiens; average IC50 of all chemo-sensitive tested tumor cell lines; read-out: x. The class given is cell-based.
Description: as §1
(§3) The evaluation of cytotoxic activity was conducted by MTT test as described previously. The median inhibitory concentration (IC50) values which represent the half-maximal concentration values were calculated from sigmoidal concentration–response curves, using non-linear regression analysis (Curve fit, GraphPad Prizm 5.0 software, GraphPad Software Inc., San Diego, CA, USA). The selectivity index was calculated as the ratio of the IC50 of a non-cancerous line (HEK-293 or EA.hy926) and the average IC50 of all chemosensitive tested tumor cell lines (x). Therefore, SI=IC50HEK-293/IC50x . The resistance index (RI) was calculated as the ratio of IC50 of the multi-drug resistant HL-60/DOX cell line and the IC50 of its parent cell line: RI=IC50HL-60/DOX/IC50HL-60 .

For a further test, the system named is EA.hy926. In words: MTT cytotoxicity test. Conditions: Homo sapiens, EA.hy 926, EA.hy926, 72 h exposure. In kind it is cell-based, human.
Description: as §1, §3

Another test concerns HL-60/DOX. Put plainly: MTT cytotoxicity test. The class given is cell-based, human. Conditions: Homo sapiens, 72 h exposure.
Description: as §1, §3

The next test deals with HEK-293. Put plainly: MTT cytotoxicity test. Conditions: Homo sapiens, HEK293, HEK-293, 72 h exposure. In kind it is cell-based, human.
Description: as §1, §3

Test [6] concerns HL-60. Put plainly: MTT cytotoxicity test. The class given is cell-based, human. Conditions: Homo sapiens, HL-60, 72 h exposure.
Description: as §1, §3

The subject of test [7] is MDA-MB-231. Put plainly: MTT cytotoxicity test. In kind it is cell-based, human. The settings on record: Homo sapiens, MDA-MB-231, 72 h exposure.
Description: as §1, §3

The test system of test [8] is K-562. In words: MTT cytotoxicity test. In kind it is cell-based, human. The settings on record: Homo sapiens, K562, K-562, 72 h exposure.
Description: as §1, §3

The test system of a further test is EJ. Put plainly: MTT cytotoxicity test. The class given is cell-based, human. The settings on record: Homo sapiens, 72 h exposure.
Description: as §1, §3

The subject of another test is MRSA. Conditions: cited from earlier work.
The subject of a further test is Bcl-2. Put plainly: Western blot, Bcl-2. The class given is cell-based, human. The settings on record: MDA-MB-231 and HL60/DOX. The procedure:
Next, the samples were lysed on ice with a buffer containing 100 mM Tris–HCl at pH 8.0, 4% SDS, 20% glycerol, 1% Na3VO4, 200 mM dithiothreitol (DTT) (Sigma-Aldrich, St. Louis, MO, USA) and protease inhibitor (Roche, Basel, Switzerland). Then the cell lysate was boiled for 15 min and centrifuged at 13,000 rpm for 10 min at 4 °C. Before DTT addition, aliquot samples of 10 μL were taken from the lysates. Their protein concentrations were determined using a BCA protein assay kit (ThermoFisher Scientific, Waltham, MA, USA) after dilution 5× with H2O. Subsequently, the samples were subjected to denaturing SDS-PAGE electrophoresis and then transferred to PVDF membrane (Santa Cruz Biotechnology, USA). After this, the blots were fixed with blocking solution (5% w/v nonfat dried milk powder, dissolved in TBS) and incubated with specific primary antibodies: mouse procaspase-9 (sc-17784), mouse Bcl-2 (C-2, sc-7382) and mouse β-actin (sc-8432). The incubation was either overnight at 4 °C or for 150 min at room temperature. After washing, the membranes were incubated for 45 min with horseradish peroxidase conjugated secondary goat anti-mouse antibody (sc-2005) or mouse IgG kappa antibody (sc-516102) (Santa Cruz Biotechnology, Santa Cruz, CA, USA). […] This densitometry analysis of the blots was calculated by Quantity One software version 4.6.9 (Bio-Rad Laboratories, Hercules, CA, USA). […]

Test [9] has as its system prostate cancer cell PC-3. The settings on record: cited from earlier work.
Test [10] deals with Corynebacterium diphtherie. The settings on record: cited from earlier work.
Another test relates to MDA-MB-231 cells. The settings on record: cited from earlier work.
Another test concerns leukemia U937 cells. The settings on record: lowest IC50 value; cited from earlier work.
A further test deals with K-562 cells. The settings on record: K-562; cited from earlier work.
For test [11], the system named is Gram-negative bacteria, such as E. coli and fungi. Conditions: cited from earlier work.
For a further test, the system named is Sarcina lutea. The settings on record: cited from earlier work.
A further test concerns S. aureus. The settings on record: cited from earlier work.
A further test relates to E. faecalis. Conditions: cited from earlier work.

With `CC[C@H](C)C(=O)c1c(O)cc(O)cc1OC/C=C(\C)CCC=C(C)C` [Compound 2, olympicin A], the “inhibition of efflux from NorA multidrug efflux pumps” value in test [1] is listed as “inhibited the efflux”. Also, the total growth inhibition concentration (TGI) in the test on HL-60 [2] (HL-60, total growth inhibition) came out at 81.63 µM; in the test on MDA-MB-231 [3] (MDA-MB-231, total growth inhibition) it was 2.54 µM; in the test on K-562 [4] (K-562, total growth inhibition) it was 23.49 µM. In addition, the GI50 with HL-60 [2] (Homo sapiens, HL-60, MTT readout) is 72.6 µM; with MDA-MB-231 [3] (Homo sapiens, MDA-MB-231, MTT readout), 1070 nM; in the test on K-562 [4] (Homo sapiens, K562, K-562, MTT readout), 20.3 µM. The IC50 in test [5] is 11.3 µM; in the test with EA.hy926 it was 34 ± 6.5 µM; in the test with HL-60/DOX, 1960 ± 200 nM; in the test on HEK-293, 22.5 ± 3.8 µM; in the test with HL-60 [6], 13.8 ± 1.8 µM; in the test with MDA-MB-231 [7], 2950 ± 400 nM. Further, the IC50 with K-562 [8] is 22.9 ± 4 µM; in the test with EJ it was 5.61 ± 0.5 µM; in the test on MRSA (growth of MRSA), 1.80 mg/L (≈ 5.2 µM). Besides, the “degradation of the antiapoptotic protein Bcl-2 (in words)” value in the test with Bcl-2 is “degradation”.

For the compound `CC(C)=CCC[C@]1(C)[C@@H](CC=C(C)C)C[C@@]2(CC=C(C)C)C(=O)[C@]1(C(=O)C(C)C)C(=O)C(CC=C(C)C)=C2O` [hyperforin], the IC50 in test [9] was 37 µM; in the test on MDA-MB-231 cells it was 12 µM; with leukemia U937 cells it was 1800 nM; with K-562 cells, 21 µM. The MIC was 0.1 mg/L and 0.19 μM in test [10]; 400 mg/L (≈ 745 µM) in test [11]; 0.1 mg/L and 0.19 μM in the test with Sarcina lutea; 1 mg/L (≈ 1.86 µM) in the test with MRSA (MRSA); 0.1 mg/L and 0.19 μM with S. aureus; 50 mg/L (≈ 93.1 µM) in the test with S. aureus (listed as Hyperforin). Further, in the test on E. faecalis, the MIC is given as 1 mg/L (≈ 1.86 µM).
